The test system of the data set is HMC3 cell line. Kind of data set: Cell viability test (MTT assay). Type of data set: cell-based, Homo sapiens, human. Conditions: HMC3 cells, tested 0.039 to 100 µM. As to the method:
The American Type Culture Collection's HMC3 (CRL-3304) cell line was grown in the MEM growth medium supplemented with 10% fetal bovine serum (FBS), 100 U/mL penicillin, and 100 µg/mL streptomycin (complete medium). The cells were kept at 37 °C in a 5% CO2 incubator and grown up to 100% confluence before use. In particular, regarding BCP, cells were treated with this substance at concentrations ranging from 0.039 to 100 µM (9 concentrations). Regarding LAC, cells were treated with this substance at concentrations ranging from 0.06 to 30 mM (9 concentrations). […] The MTT cell viability test was performed by seeding 1 × 10^4 cells/well in a 96-multiwell and grown at 37 °C and 5% CO2. The next day, cells were treated with different concentrations of BCP and LAC and their combinations (Mix). […] The formazane crystals were then solubilized with 100 µL DMSO/well for 15 min and the absorbance was measured at the wavelength of 570 nm using a Multiskan™ GO microplate reader (Thermo Scientific Microplate Spectrophotometer). Finally, the cytotoxicity of the substances in combination was evaluated starting from the maximum non-cytotoxic concentrations of each molecule (BCP and LAC alone) (Table 1).
On the technique in general: Tetrazolium assays rely on reduction of a dye to a coloured formazan, in cell work by metabolically active cells.

Among the data in patent EP4364730A1, “PHARMACEUTICAL COMPOSITION COMPRISING L-ACETYL CARNITINE AND BETA-CARYOPHYLLENE” (Chiesi Italia S.p.A., priority 2022, dated 2024) are maximum non-cytotoxic concentration values, retold here.

Turning to `C=C1CC/C=C(\C)CC[C@@H]2[C@@H]1CC2(C)C` [BCP, (1R,4E,9S)-4,11,11-trimethyl-8-methylidenebicyclo[7.2.0]undec-4-ene], the maximum non-cytotoxic concentration was 100 µM.
